Measured values published in patent US12180226B2, “Spirotricycle RIPK1 inhibitors and methods of uses thereof” (Merck Sharp & Dohme LLC, priority 2021, dated 2024).

Target: RIPK1 (recombinant GST-RIPK1 kinase domain, residues 1-327) (Homo sapiens (Human), UniProt Q13546)
Assay: RIPK1-ADP-Glo Enzymatic Assay
Type: biochemical
Settings: ADP-Glo; 25 nM GST-RIPK1, 300 μM ATP; assay lower limit ~25 nM; read-out: RIPK1 V0 Ec50
Summary of the method: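 Using dephosphorylated MBP (3 μM) as substrate and 300 μM ATP, 25 nM baculovirus-produced enzyme was reacted for 150 min after a 30-min compound pre-incubation. Luminescent ADP detection followed; lower confidence limit ~25 nM.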

Chain of RIPK1 (recombinant GST-RIPK1 kinase domain, residues 1-327) (Q13546 1-327): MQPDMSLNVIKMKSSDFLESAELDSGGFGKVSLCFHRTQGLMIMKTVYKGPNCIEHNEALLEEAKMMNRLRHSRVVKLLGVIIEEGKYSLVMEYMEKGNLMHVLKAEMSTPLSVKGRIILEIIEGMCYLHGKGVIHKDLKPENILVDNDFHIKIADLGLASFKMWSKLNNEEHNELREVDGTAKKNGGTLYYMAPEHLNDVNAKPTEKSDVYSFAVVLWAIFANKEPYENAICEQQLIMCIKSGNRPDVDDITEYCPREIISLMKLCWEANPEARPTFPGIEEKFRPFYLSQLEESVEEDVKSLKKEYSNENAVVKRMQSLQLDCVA

Structure (SMILES)	EC50 [nM]
Cc1nc(N2CCC3(CC2)O[C@@H]2CC[C@@H](c4ccccc4)N2C3=O)ccc1F [Example 11.33, (5′S,7a′R)-1-(5-fluoro-6-methylpyridin-2-yl)-5′-phenyltetrahydro-3′H-spiro[piperidine-4,2′-pyrrolo[2,1-b][1,3]oxazol]-3′-one]	< 25
N#Cc1ccc(N2CCC3(CC2)O[C@@H]2CC[C@@H](c4ccccc4)N2C3=O)n2ncc(C#N)c12 [Example 4.178, 7-[(5′S,7a′R)-3′-oxo-5′-phenyltetrahydro-1H,3′H-spiro[piperidine-4,2′-pyrrolo[2,1-b] [1,3]oxazol]-1-yl]pyrazolo[1,5-a] pyridine-3,4-dicarbonitrile]	< 25
COc1cccc(C(=O)N2CCC3(CC2)O[C@@H]2CC[C@@H](c4cc(F)cc(F)c4)N2C3=O)n1 [Example 6.12, (5′S,7a′R)-5′-(3,5-difluorophenyl)-1-(6-methoxypyridine-2-carbonyl)tetrahydro-3′H-spiro[piperidine-4,2′-pyrrolo[2,1-b] [1,3]oxazol]-3′-one]	25.1
O=C1N2[C@@H](CC[C@H]2c2ccccc2)OC12CN(c1ccc(C3CCC3)c3ccnn13)C2 [Example 18.3, (5′S,7a′R)-1-(4-cyclobutylpyrazolo[1,5-a]pyridin-7-yl)-5′-phenyltetrahydro-3′H-spiro[azetidine-3,2′-pyrrolo[2,1-b][1,3]oxazol]-3′-one]	< 25
O=C1N2[C@@H](CC[C@H]2c2cc(F)cc(F)c2)OC12CCN(c1ncnc3c(F)cnn13)CC2 [Example 4.250, (5′S,7a′R)-5′-(3,5-difluorophenyl)-1-(8-fluoropyrazolo[1,5-a] [1,3,5]triazin-4-yl)tetrahydro-3′H-spiro[piperidine-4,2′-pyrrolo[2,1-b] [1,3]oxazol]-3′-one]	< 25
O=C1N2[C@@H](CC[C@H]2c2ccccc2)OC12CCN(c1nccc(C3CC3)n1)CC2 [Example 11.12, (5′S,7a′R)-1-(4-cyclopropylpyrimidin-2-yl)-5′-phenyltetrahydro-3′H-spiro[piperidine-4,2′-pyrrolo[2,1-b][1,3]oxazol]-3′-one]	97.7
CC(C)c1oncc1C(=O)N1CCC2(CC1)O[C@@H]1CC[C@@H](c3cc(F)cc(F)c3)N1C2=O [Example 6.49, (5′S,7a′R)-5′-(3,5-difluorophenyl)-1-[5-(propan-2-yl)-1,2-oxazole-4-carbonyl]-tetrahydro-3′H-spiro [piperidine-4,2′-pyrrolo[2,1-b][1,3]-oxazol]-3′-one]	989
CC1CN(C(=O)c2ccccc2)CCC12O[C@@H]1CC[C@@H](c3cc(F)cc(F)c3)N1C2=O (single isomer, unassigned) [Example 2.7, (3[R or S],4[S or R], 5′S,7a′R)-1-benzoyl-5′-(3,5-difluorophenyl)-3-methyltetrahydro-3′H-spiro[piperidine-4,2′-pyrrolo[2,1-b]oxazol]-3′-one]	43.1
O=C1N2C(CCC2c2cc(F)cc(F)c2)OC12CCN(c1cc(F)ccn1)CC2 (centres unmarked) [Example 4.3, 5′-(3,5-difluorophenyl)-1-(4-fluoropyridin-2-yl)tetrahydro-3′H-spiro[piperidine-4,2′-pyrrolo[2,1-b] [1,3]oxazol]-3′-one]	< 25
N#Cc1ccc(F)c([C@@H]2CC[C@H]3OC4(CCN(c5ccnc6c(F)cnn56)CC4)C(=O)N32)c1 [Example 20.4, 4-fluoro-3-[(5′S,7a′R)-1-(3-fluoropyrazolo[1,5-a]pyrimidin-7-yl)-3′-oxotetrahydro-3′H-spiro[piperidine-4,2′-pyrrolo[2,1-b][1,3]oxazol]-5′-yl]benzonitrile]	< 25
O=C1N2[C@@H](CC[C@H]2c2ccccc2F)OC12CN(c1ccnc3ccnn13)C2 [Example 4.108, (5′S,7a′R)-5′-(2-fluorophenyl)-1-(pyrazolo[1,5-a]pyrimidin-7-yl)tetrahydro-3′H-spiro[azetidine-3,2′-pyrrolo[2,1-b]oxazol]-3′-one]	26.9
